Reference: patent US20060041959A1, “Control of plant growth and developmental process” (Universiteit Leiden, priority 2003, published 2006)
“Also recorded” adds a separate entry of the source.

Key:
[1] = test system: mutant phenotypes caused by NM—115413.1/NM—106300.1 overexpression constructs; test: Effect of plant growth substance on NM_115413.1/NM_106300.1 overexpressing mutant phenotypes; type: in vivo, Arabidopsis; conditions: applied to overexpressing lines
Excerpt: (§1) It is thus likely that overexpression directly or indirectly leads to changes in the levels of plant growth substances. Plant cells affected in this manner can secrete regulatory signals affecting neighboring cells or tissues. It is thus shown herein that by using plant material overexpressing one or more members of the protein family described with the sequence identifiers mentioned, the development of other plant material (including non-transformed material) can be altered towards a more organogenic/embryogenic pathway.

[2] = test system: wild-type arabiodopsis seeds (ecotype Columbia); test: Germination and growth of wild-type Arabidopsis seedlings on ½MS medium containing plant growth substance; type: in vivo
Excerpt: as §1

`CC(C)[C@@H](C)[C@@H](O)[C@H](O)[C@@H](C)[C@H]1CC[C@H]2[C@@H]3COC(=O)[C@H]4C[C@H](O)[C@H](O)C[C@]4(C)[C@H]3CC[C@]12C` [24-epibrassinolide] was tested, and the “effect on mutant (overexpression) phenotypes” value [1] was “able to make the mutant phenotypes more vigorous”, the “seedling growth phenotype after germination on medium containing the substance” value ([2]; 4 μM in ½MS medium, 14 and 28 dag, controls 0.1% DMSO, FIG. 3) was “growth aberrations resembling those seen in NM—115413.1 or NM—106300.1 overexpressing seedlings can be observed” and the “somatic embryogenesis in wild-type plants” value ([2]; wild-type plants, FIG. 3) was “somatic embryogenesis was not observed”. The “ability to mimic the mutant phenotypes caused by overexpression constructs in wild-type plants” value ([2]; wild-type plants, compared with other plant growth substances investigated) was “can mimic some of the effects of overexpression of the proteins of the invention; also recorded: most profound effect on wild-type plants”.
